Key:
[1] = target: T1, human adenosine A3 receptor (Homo sapiens (Human), UniProt P0DMS8); test: Adenosine receptor binding assay ([125I]-AB-MECA competition); conditions: inhibition of 0.15 nM [125I]-AB-MECA binding, membranes of cells expressing human A3 receptor; read-out: hA3 Ki: Ki
Source text: Example 30: Adenosine Receptor Binding Assay
Materials and Reference Compounds: [^125I]-AB-MECA and [^3H]CCPA are both obtained from Amersham Biosciences (Little Chalfont, UK). IB-MECA are obtained from Tocris (Bristol, UK) and N6-cyclopentyl adenosine (CPA) is obtained from Sigma-Alrich (Poole, UK). Cell culture media, G418 and hygromycin are obtained from Invitrogen (Paisley, UK). Fetal calf serum is obtained from Perbio Science (Cheshire, UK). All other reagents are obtained from Fisher Chemicals (Loughborough, UK).
The method followed is that of Yates L, Clark J H, Martin T J, James S, Broadley K J, Kidd E J. Radioligand binding and functional responses of ligands for human recombinant adenosine A3 receptors. Auton Autacoid Pharmacol. 2006; 26(2):191-200. Cells stably transfected with the human adenosine A3 or A1 receptor are grown in Dulbecco's modified Eagles medium with nutrient mixture F12 containing NaHCO3 and Glutamax. Media is supplemented with 10% fetal calf serum, geneticin (G418; 0.67 mg/mL), hygromycin (500 μg/mL) and adenosine deaminase (1 U/mL). Cells are maintained at 37° C. with 5% CO2 in air. Cells are harvested and homogenized in ice-cold Tris buffer [50 mM Tris, 150 mM NaCl, 1 mM ethylenediaminetetraacetic acid (EDTA), pH 7.4] supplemented with the peptidase inhibitors, 4-(2-aminoethyl)benzenesulfonylfluoride (1 mM) and bacitracin (0.1 mg/mL), using a Polytron homogenizer (3×10 s bursts). The homogenate was spun for 10 min (4° C.) at 500 g. The supernatant is retained and the pellet is re-suspended in the buffer, homogenized and spun as above. The combined supernatants are centrifuged for 15 min (4° C.) at 48,000 g. The resultant pellet is re-suspended in the buffer and centrifuged for a second time at 48,000 g. The membrane pellet is then suspended in Tris buffer containing no peptidase inhibitors or adenosine deaminase and stored at −80° C. at a protein concentration of 1 mg/mL.
Binding Assays: Radioligand-binding assays were performed using the adenosine A3 receptor agonist [^125I]-AB-MECA and the A1 receptor agonist [^3H]CCPA. Binding assays were conducted in a total volume of 100 μL containing a 50 mM Tris, pH 7.4 buffer with or without 10 mM MgCl2, 20 μg membranes and either 0.15 nM [^125I]-AB-MECA (for the A3 receptor) or 1 nM [^3H]CCPA (for the A1 receptor). Assays were conducted at room temperature for 60 min (A1 receptor) or 120 min (A3 receptor) and terminated by the addition of 2 ml of ice-cold wash buffer (50 mM Tris, pH 7.4 with or without 10 mM MgCl2) and rapid filtration over 0.03% polyethylenimine-treated Whatman GF/C filters using a Brandel cell harvester (Semat International Ltd., St Albans, UK). Filters were then washed three times with 2 ml of ice-cold buffer. The filter-bound radioactivity were counted using a Compugamma counter (LKB Wallac, Turku, Finland). Competition experiments were performed to investigate the ability of reference compounds and embodiments of the invention to inhibit [^125I]-AB-MECA binding. Non-specific binding were determined using the respective compound at its highest concentration.
Data Analysis: The Kd and Bmax values for binding data were calculated based upon the molar amounts of bound and free [^125I]-AB-MECA. […] IC50 and Ki values and Hill slopes for inhibition of the radioligand binding by the compounds of the invention were calculated from the ligand competition curves using the Excel spreadsheet and the Kd value calculated for either [^125I]-AB-MECA or [^3H]CCPA. The results were expressed as a percent of control specific binding and as a percent inhibition of control specific binding obtained in the presence of the compounds of the invention. The IC50 values (concentration causing a half-maximal inhibition of control specific binding) and Hill coefficients (nH) were determined by non-linear regression analysis of the competition curves generated with mean replicate values using Hill equation curve fitting: […]

[2] = target: T1, human adenosine A3 receptor; test: Intracellular cAMP levels (inhibition of forskolin-stimulated cAMP production); type: cell-based; conditions: for EC50: CHO cells expressing human adenosine A3 receptors, forskolin 10 μM; for CAMP Efficacy (%): maximal response as percentage of the response produced by 100 nM IB-MECA
Source text: Example 31: Intracellular cAMP Levels
The method followed is that published in Yates L, Clark J H, Martin T J, James S, Broadley K J, Kidd E J. Radioligand binding and functional responses of ligands for human recombinant adenosine A3 receptors. Auton Autacoid Pharmacol. 2006 April; 26(2):191-200.
Materials and Cell Culture: Adenosine deaminase was obtained from Roche (Lewes, UK). Forskolin was obtained from Sigma-Aldrich (Poole, UK). The sources of other materials are provided above in Example 1. CHO-K1 cells stably transfected with the human adenosine A3 receptor were grown in Dulbecco's modified Eagles medium with nutrient mixture F12 containing NaHCO3 and Glutamax. Media was supplemented with 10% fetal calf serum, geneticin (G418; 0.67 mg/mL), hygromycin (500 μg/mL) and adenosine deaminase (1 U/mL). Cells were maintained at 37° C. with 5% CO2 in air.
cAMP Measurements: Intracellular cAMP production was measured directly using a non-acetylation cAMP enzyme immunoassay (Amersham Biosciences, Little Chalfont, UK). Cultured CHO cells expressing human adenosine A3 receptors were allowed to plate overnight in 96-well plates in culture medium containing adenosine deaminase. Twenty-four hours later, they were incubated with adenosine analogues or compounds of the invention (0.1 nM-1 μM) for 5 min at 37° C., followed by incubation with forskolin (10 μM) for 10 min. The cells were then lysed with 200 μL of lysis reagent 1 provided with the kit for 10 min to release intracellular cAMP. Aliquots of the supernatants were then transferred to a 96-well microtitre plate coated with donkey anti-rabbit IgG; 100-μL cAMP standards (12.5-3200 fmol/well) were also added to the microtitre plate; 100 μL of rabbit anti-cAMP antibody was added to all wells and incubated at 2-5° C. for 2 h. The antiserum was made up in lysis reagent 2, which sequesters the key component in lysis reagent 1 and ensures that cAMP is free for subsequent analysis. Then 50 μL of cAMP peroxidase conjugate was added to all wells and left to incubate for 60 min at 2-5° C. to allow competition for the antibody between the un-labelled and horse radish peroxidase (HRP)-labelled cAMP. Wells were then washed with buffer and 150 μL of enzyme substrate containing 3,3′,5,5′-tetramethylbenzidine/hydrogen peroxide in 20% (v/v) dimethylformamide was added to each well and left to incubate for 60 min on a Titramax 100 microtitre plate shaker (Heidolph Instruments, Schwabach, Germany) at room temperature for color development. The reaction was stopped by the addition of 100 μL of 1 M sulfuric acid and the optical density (OD) read at 450 nm on a spectrophotometric MRX microplate reader (Dynex Technologies, Chantilly, VA, USA).
Analyses: Each sample/standard was analyzed in duplicate and the resulting OD values averaged. The percent bound (B/Bo) for each standard and sample was calculated using the following relationship: […]
where B is the specific OD for standard/sample and Bo is the specific OD for the zero standard. A standard curve was generated by plotting % B/Bo as a function of the log fmol cAMP standard per well. The fmol per well value for cAMP in each sample was then read from the graph. The results are expressed as a percent of control agonist response: (measured response/control response)*100 in the presence of the compounds of the invention. Concentration-response curves for inhibition of cAMP production were constructed for all compounds of the invention and reference compounds. The EC50 values (concentration producing a half-maximal response) were determined by non-linear regression analysis of the concentration-response curves generated with mean replicate values using Hill equation curve fitting, according to the equation:
where Y=response, A=left asymptote of the curve, D=right asymptote of the curve, C=compound concentration, and C50=EC50, and nH=slope factor. […]

T1 sequence (P0DMS8 whole entry): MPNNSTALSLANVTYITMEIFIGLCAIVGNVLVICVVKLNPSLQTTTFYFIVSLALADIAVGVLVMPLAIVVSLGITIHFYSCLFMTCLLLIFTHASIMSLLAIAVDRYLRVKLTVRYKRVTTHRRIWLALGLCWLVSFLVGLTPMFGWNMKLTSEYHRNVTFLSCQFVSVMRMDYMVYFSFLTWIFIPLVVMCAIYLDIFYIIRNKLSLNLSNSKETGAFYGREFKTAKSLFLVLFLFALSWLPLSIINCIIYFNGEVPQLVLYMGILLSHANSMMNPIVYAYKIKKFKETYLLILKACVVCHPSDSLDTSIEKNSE

Structure (SMILES)	Ki [1] [nM]	EC50 [2] [nM]	CAMP Efficacy (%) [2] [%]
CNC(=O)C12C[C@@H]1[C@@H](n1cnc3c(NCC4CC4)cc(Cl)nc31)[C@H](O)[C@@H]2O (stereo in doubt) [Compound 63, (1S,2R,3S,4R,5S)-4-(5-chloro-7-((cyclopropylmethyl)amino)-3H-imidazo[4,5-b]pyridin-3-yl)-2,3-dihydroxy-N-methylbicyclo[3.1.0]hexane-1-carboxamide]	0.72	0.22	105.1
O[C@@H]1[C@H](O)[C@@H]2C[C@@H]2[C@H]1n1cnc2c(NCc3cc(Cl)ccc3Cl)cc(Cl)nc21 [Compound 68, (1R,2R,3S,4R,5S)-4-(5-chloro-7-((2,5-dichlorobenzyl)amino)-3H-imidazo[4,5-b]pyridin-3-yl)bicyclo[3.1.0]hexane-2,3-dio]	4.75	1.33	38.22
CCNc1c(C#N)c(Cl)nc2c1ncn2[C@H]1[C@H](O)[C@H](O)[C@@H]2C[C@@H]21 [Compound 93, 5-chloro-3-((1S,2R,3S,4R,5R)-3,4-dihydroxybicyclo[3.1.0]hexan-2-yl)-7-(ethylamino)-3H-imidazo[4,5-b]pyridine-6-carbonitrile]	2.59	15.2	52

Now those with a lower Ki [1], led by results:

Ki [1] [nM]	EC50 [2] [nM]	CAMP Efficacy (%) [2] [%]	Structure (SMILES)
0.33	0.31	103.26	CNC(=O)[C@@]12C[C@@H]1[C@@H](n1cnc3c(NCc4cc(Cl)ccc4OCc4cc(C)no4)cc(Cl)nc31)[C@H](O)[C@@H]2O [Compound 62, (1S,2R,3S,4R,5S)-4-(5-chloro-7-((5-chloro-2-((3-methylisoxazol-5-yl)methoxy)benzyl)amino)-3H-imidazo[4,5-b]pyridin-3-yl)-2,3-dihydroxy-N-methylbicyclo[3.1.0]hexane-1-carboxamide]
0.133	0.1	104.76	CCNc1cc(C#N)nc2c1ncn2[C@H]1[C@H](O)[C@H](O)[C@]2(C(=O)NC)C[C@H]12 [Compound 70, (1S,2R,3S,4R,5S)-4-(5-cyano-7-(ethylamino)-3H-imidazo[4,5-b]pyridin-3-yl)-2,3-dihydroxy-N-methylbicyclo[3.1.0]hexane-1-carboxamide]

Reference: patent US20230416245A1, “ADENOSINE ANALOGS FOR THE TREATMENT OF DISEASE” (BIOINTERVENE, INC., priority 2020, published 2023)
